This passage reports TGI results from PubChem BioAssay (NCI).

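1) Cells in 96-well plates. 2) Compound, 48 h, 5 concentrations. 3) Linear interpolation between surrounding doses. 4) Unreached endpoint = highest concentration. TGI denotes the concentration required for complete inhibition of growth.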

Among the test systems are U251 CNS; HS 578T breast; SNB-19 CNS; SF-268 CNS; K-562 leukemia; MOLT-4 leukemia; LOX IMVI melanoma; NCI/ADR-RES ovarian; DU-145 prostate; SW-620 colon; HCT-116 colon; SN12C renal; HOP-62 NSCLC; HCC-2998 colon; PC-3 prostate; 786-0 renal; RXF 393 renal; T-47D breast; NCI-H226 lung; SF-539 CNS.
Common to all, as to experiment: DTP human tumour cell line panel, 48 h

`CC(C)=CCC[C@@H](C)C1=C(O)C(Nc2ccccc2F)=C(C)C(=O)C1=O`: the TGI (usually the concentration giving total growth inhibition) was over 100 µM in the assay with U251 CNS; 54.8 µM in the assay with HS 578T breast; over 100 µM with SNB-19 CNS; over 54 µM in the assay with SF-268 CNS; over 100 µM with K-562 leukemia; over 100 µM in the assay on MOLT-4 leukemia. The TGI is over 100 µM with LOX IMVI melanoma; 23 µM with NCI/ADR-RES ovarian; over 67.8 µM in the assay with DU-145 prostate; over 100 µM with SW-620 colon; 47.6 µM with HCT-116 colon; over 100 µM with SN12C renal. The TGI is over 55.7 µM in the assay with HOP-62 NSCLC; over 100 µM in the assay with HCC-2998 colon; over 100 µM in the assay on PC-3 prostate; over 100 µM in the assay with 786-0 renal; over 57.1 µM in the assay on RXF 393 renal; 57.7 µM with T-47D breast. For the same molecule, the TGI in the assay on NCI-H226 lung is over 78.7 µM.
On to `CNC(=O)C(NC(=O)[C@H](CC(C)C)NC(=O)[C@@H](S)CCN1C(=O)N(C)C(C)(C)C1=O)C(C)(C)C` (stereo not given in full), for which the TGI in the assay with HS 578T breast, in the assay on SNB-19 CNS, with SF-268 CNS, in the assay with K-562 leukemia, in the assay with MOLT-4 leukemia and with NCI/ADR-RES ovarian was over 100 µM in each case. Moreover, the TGI with DU-145 prostate, in the assay on SW-620 colon, with HCT-116 colon, in the assay on SN12C renal, in the assay with HOP-62 NSCLC and in the assay with HCC-2998 colon was over 100 µM in each case. In addition, the TGI in the assay on PC-3 prostate, in the assay on 786-0 renal, in the assay on RXF 393 renal, in the assay with T-47D breast and in the assay on NCI-H226 lung was over 100 µM in each case.
Turning to `CC1(C)C(C(=O)OC(C#N)c2cccc(OCC(=O)OCc3ccccc3)c2)C1(C)C` (stereo not given), the TGI with U251 CNS, in the assay on HS 578T breast, with SNB-19 CNS, in the assay with SF-539 CNS, in the assay on SF-268 CNS and in the assay on K-562 leukemia was over 100 µM in each case. In addition, the TGI with MOLT-4 leukemia is 62.7 µM; in the assay on LOX IMVI melanoma it was over 100 µM; in the assay on NCI/ADR-RES ovarian, over 100 µM; in the assay with DU-145 prostate it was over 100 µM; in the assay with SW-620 colon, over 100 µM; in the assay with HCT-116 colon it was over 100 µM. The TGI in the assay with SN12C renal, in the assay with HOP-62 NSCLC, in the assay with PC-3 prostate, in the assay with 786-0 renal, in the assay with RXF 393 renal and in the assay on T-47D breast was over 100 µM in each case. The TGI with NCI-H226 lung is over 100 µM.
For the molecule `CCC(c1nc2ccccc2c(=O)n1NC(=O)C(C)(C)C)C1(O)CCCCC1` (stereo not given), the TGI in the assay with U251 CNS, with HS 578T breast, in the assay on SNB-19 CNS, with SF-539 CNS, in the assay with SF-268 CNS and in the assay with K-562 leukemia was over 100 µM in each case. Also, the TGI in the assay on MOLT-4 leukemia, with NCI/ADR-RES ovarian, in the assay with DU-145 prostate, in the assay with SW-620 colon, in the assay with HCT-116 colon and with SN12C renal was over 100 µM each time. The TGI in the assay on HOP-62 NSCLC, with PC-3 prostate, in the assay on 786-0 renal, in the assay with RXF 393 renal, in the assay with T-47D breast and with NCI-H226 lung was over 100 µM each time.
Take `COC(=O)C(Cc1ccccc1)NC(=O)C(CCCN=C(N)N)NC(=O)OCc1ccccc1` (stereo not given): the TGI in the assay with U251 CNS, in the assay on HS 578T breast, in the assay with SNB-19 CNS, with SF-268 CNS, in the assay on K-562 leukemia and with MOLT-4 leukemia was over 100 µM each time. Moreover, the TGI in the assay on LOX IMVI melanoma, with NCI/ADR-RES ovarian, in the assay on DU-145 prostate, in the assay on SW-620 colon, in the assay on HCT-116 colon and in the assay on SN12C renal was over 100 µM each time. Besides, the TGI in the assay on HOP-62 NSCLC, with HCC-2998 colon, with PC-3 prostate, with 786-0 renal, in the assay with RXF 393 renal and with T-47D breast was over 100 µM each time. This molecule registered a TGI in the assay on NCI-H226 lung of over 100 µM.
As to `CN(C)Cc1cc(C(=O)/C=C/c2c(F)cccc2Cl)cc(CN(C)C)c1O`, the TGI in the assay on U251 CNS was 28.9 µM; with HS 578T breast it was 50.2 µM; in the assay on SNB-19 CNS, 61.5 µM; with SF-268 CNS, 23.5 µM; with K-562 leukemia, 26.8 µM; in the assay on MOLT-4 leukemia it was 66.1 µM. The TGI is 18.5 µM with LOX IMVI melanoma; 75.7 µM in the assay with NCI/ADR-RES ovarian; 21.3 µM in the assay with DU-145 prostate; 31.3 µM in the assay with SW-620 colon; 16.2 µM in the assay on HCT-116 colon; 17.2 µM in the assay with SN12C renal. For the same molecule, the TGI is 26.7 µM with HOP-62 NSCLC; 27 µM with HCC-2998 colon; 29.5 µM with PC-3 prostate; 19.5 µM in the assay with 786-0 renal; 12.6 µM in the assay on RXF 393 renal; 33.4 µM in the assay with T-47D breast. In the assay with NCI-H226 lung, the TGI came to 30.8 µM.
Take `CCC(=O)n1c(=O)n(-c2ccc([N+](=O)[O-])cc2)c(=O)n1C(=O)CC`: the TGI in the assay with U251 CNS, with HS 578T breast, in the assay on SNB-19 CNS, in the assay on SF-268 CNS, in the assay on K-562 leukemia and in the assay with MOLT-4 leukemia was over 100 µM each time. Further, the TGI in the assay with LOX IMVI melanoma, in the assay on NCI/ADR-RES ovarian, with DU-145 prostate, in the assay on SW-620 colon, with HCT-116 colon and in the assay on SN12C renal was over 100 µM in each case. Also, the TGI in the assay on HOP-62 NSCLC, in the assay with HCC-2998 colon, in the assay on PC-3 prostate, with 786-0 renal, in the assay with RXF 393 renal and with T-47D breast was over 100 µM in each case. The molecule further came in with a TGI in the assay with NCI-H226 lung of over 100 µM.
